We go through 25 compounds from patent US9029386B2, “Pyridine derivatives useful as kinase inhibitors” (YM Biosciences Australia Pty Ltd, priority 2006, dated 2015).

For experiment [1], the target named is T1, kinase domain of human CSF1-R (Homo sapiens, UniProt P07333).
T1 construct: from codon I553 to Q961; made in house; host or cells: Sf9 insect cells (baculovirus)
T1 sequence (P07333 553-961): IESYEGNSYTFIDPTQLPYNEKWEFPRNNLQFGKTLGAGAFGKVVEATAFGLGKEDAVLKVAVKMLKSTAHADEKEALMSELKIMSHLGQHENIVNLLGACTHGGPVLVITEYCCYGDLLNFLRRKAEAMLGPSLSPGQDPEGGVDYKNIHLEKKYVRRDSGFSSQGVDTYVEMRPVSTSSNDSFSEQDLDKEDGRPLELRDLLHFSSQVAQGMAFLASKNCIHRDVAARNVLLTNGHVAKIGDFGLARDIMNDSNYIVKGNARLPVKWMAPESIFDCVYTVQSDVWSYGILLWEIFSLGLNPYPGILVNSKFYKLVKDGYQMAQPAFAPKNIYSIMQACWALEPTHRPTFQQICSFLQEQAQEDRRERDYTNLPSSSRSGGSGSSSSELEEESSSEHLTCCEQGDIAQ
Nature of the experiment: Alphascreen protein tyrosine kinase assay, CSF-1R. The class given is biochemical. The procedure:
(§1) For screening purposes, compounds were diluted in 96 well plates at a concentration of 20 μM. Plates were warmed at 37° C. for 30 minutes before assay.
The kinase domain of human CSF1-R from codon I553 to Q961 was cloned into the pDEST-20 expression vector (Invitrogen). The CSF1-R plasmid was then transformed into competent DH10Bac cells (Gibco), and the recombinant baculovirus produced prepared for transfection into Sf9 insect cells.
(§2) Baculovirus preparations from each of construct were infected into five liters of SF9 cells (Invitrogen) grown in SF-900 medium (Invitrogen) to a cell density of approximately 1−2×10^6 cells/ml. […] Cells were harvested and lysed. Tyrosine kinase domains were purified by affinity chromatography on a glutathione-agarose column (Scientifix Pty. Ltd. catalog #: GSH-200).
(§3) Kinase assays were performed in 384 well Optiplates (Packard) using an Alphascreen Protein Tyrosine Kinase kit. […] Alphascreen phosphotyrosine acceptor beads followed by streptavidin donor beads were added under subdued light. The Alphascreen plates were read on a Packard Fusion Alpha. Inhibitors were added to the assays thirty minutes prior to the addition of ATP. Inhibitors were added in aqueous DMSO, with DMSO concentrations never exceeding 1%.

Experiment [2] has as its target T2, kinase domain of human c-kit (Homo sapiens, UniProt P10721).
T2 construct: from codon M552 to end; made in house; host or cells: Sf9 insect cells (baculovirus)
Put plainly: Alphascreen protein tyrosine kinase assay, c-KIT. Type of experiment: biochemical. The procedure:
as §1
The kinase domain of human c-kit from codon M552 to end was cloned into the pDEST-20 expression vector (Invitrogen). The c-kit plasmid was then transformed into competent DH10Bac cells (Gibco), and the recombinant baculovirus produced prepared for transfection into Sf9 insect cells.
as §2, §3

For experiment [3], the target named is T3, KDR protein kinase (Homo sapiens, UniProt P35968).
T3 construct: purchased Millipore 14-630M
Nature of the experiment: Alphascreen protein tyrosine kinase assay, KDR. Type of experiment: biochemical. The procedure: as §1
FLT-3 and PDGFR β tyrosine kinase enzymes were purchased from Upstate Cell Signalling Solutions, CA, USA (flt-3 catalog #: 14-500 and PDGFR β catalog #: 14-463). KDR protein kinase enzyme was purchased from Millipore (catalogue #14-630M).
Kinase assays were performed in 384 well Optiplates (Packard) using an Alphascreen Protein Tyrosine Kinase kit. […] The biotinylated peptides Biotin-[…]-NH2 for c-KIT and PDGFRβ and Biotin-[…]-NH2 for CSF1-R and FLT-3 (final concentration 0.1-3 μM) were used as substrates. Alphascreen phosphotyrosine acceptor beads followed by streptavidin donor beads were added under subdued light. The Alphascreen plates were read on a Packard Fusion Alpha. Inhibitors were added to the assays thirty minutes prior to the addition of ATP. Inhibitors were added in aqueous DMSO, with DMSO concentrations never exceeding 1%.

Experiment [4] deals with mNFS-60. Put plainly: Cellular assay (Alamar Blue), mNFS-60 with human M-CSF. Type of experiment: cell-based. The settings on record: human M-CSF at 20 ng/ml, 72 hr. The procedure: (§4) Cells for the assays were prepared by harvesting cells from culture, and then diluting them in the appropriate growth medium to between 40,000 cell/mL and 600,000 cell/mL, depending on the cell line.
(§5) The compounds to be tested were added (104, 10× final concentration) to a flat bottomed 96-well plate. The cellular suspension (80 μL per well) was added, and one hour later the growth factor was added (human M-CSF at 20 ng/ml for mNFS-60, mouse IL-3 at 5 ng/ml for Baf3-WT). The plate was then incubated for 72 hr at 37° C., 5% CO2. Alamar Blue (10^4 per well) was added and the plates returned to the incubator for a further 4-8 hours.
(§6) The plates were then read using a fluorescence plate reader at excitation 544 nm and emission 590 nm.

The test system of experiment [5] is Baf3-WT. Put plainly: Cellular assay (Alamar Blue), Baf3-WT with mouse IL-3. Type of experiment: cell-based. The following applies: mouse IL-3 at 5 ng/ml, 72 hr. On the procedure: as §4, §5, §6
The target of experiment [6] is T4, PDGFR β tyrosine kinase (Homo sapiens, UniProt P09619).
T4 construct: purchased Upstate Cell Signalling Solutions, CA, USA 14-463
Nature of the experiment: Alphascreen protein tyrosine kinase assay, PDGFRβ. The class given is biochemical.

Molecules are shown by their SMILES.

T4 sequence (P09619 33-1106): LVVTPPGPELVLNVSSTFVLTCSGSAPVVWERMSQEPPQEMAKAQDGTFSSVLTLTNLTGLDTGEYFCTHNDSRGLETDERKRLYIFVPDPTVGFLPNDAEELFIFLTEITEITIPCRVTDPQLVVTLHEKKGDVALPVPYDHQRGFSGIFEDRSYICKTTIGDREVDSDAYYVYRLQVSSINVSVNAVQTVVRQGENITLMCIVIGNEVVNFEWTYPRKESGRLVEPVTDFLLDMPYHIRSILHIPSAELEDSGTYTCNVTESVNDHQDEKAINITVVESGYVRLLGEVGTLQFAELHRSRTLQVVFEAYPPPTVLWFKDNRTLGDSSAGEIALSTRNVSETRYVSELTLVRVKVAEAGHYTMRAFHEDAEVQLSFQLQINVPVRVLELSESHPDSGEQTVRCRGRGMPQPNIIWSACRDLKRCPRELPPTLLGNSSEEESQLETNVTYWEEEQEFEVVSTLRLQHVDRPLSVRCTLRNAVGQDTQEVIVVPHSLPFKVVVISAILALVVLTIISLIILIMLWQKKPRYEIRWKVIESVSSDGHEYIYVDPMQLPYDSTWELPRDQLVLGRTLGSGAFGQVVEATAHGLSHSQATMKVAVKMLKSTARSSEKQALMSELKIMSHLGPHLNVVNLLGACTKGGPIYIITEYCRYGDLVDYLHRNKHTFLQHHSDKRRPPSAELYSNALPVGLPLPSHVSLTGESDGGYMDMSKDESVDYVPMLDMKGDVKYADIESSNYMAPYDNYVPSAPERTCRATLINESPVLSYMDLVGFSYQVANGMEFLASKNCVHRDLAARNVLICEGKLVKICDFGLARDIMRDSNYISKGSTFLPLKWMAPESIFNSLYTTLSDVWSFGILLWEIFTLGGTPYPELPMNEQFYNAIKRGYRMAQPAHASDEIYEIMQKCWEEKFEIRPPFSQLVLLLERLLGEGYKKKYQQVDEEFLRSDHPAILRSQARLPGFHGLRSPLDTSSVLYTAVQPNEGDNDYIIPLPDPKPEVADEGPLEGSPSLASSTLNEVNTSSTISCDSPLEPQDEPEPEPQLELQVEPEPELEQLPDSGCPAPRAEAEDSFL
T2 sequence (P10721 552-976 limits assumed): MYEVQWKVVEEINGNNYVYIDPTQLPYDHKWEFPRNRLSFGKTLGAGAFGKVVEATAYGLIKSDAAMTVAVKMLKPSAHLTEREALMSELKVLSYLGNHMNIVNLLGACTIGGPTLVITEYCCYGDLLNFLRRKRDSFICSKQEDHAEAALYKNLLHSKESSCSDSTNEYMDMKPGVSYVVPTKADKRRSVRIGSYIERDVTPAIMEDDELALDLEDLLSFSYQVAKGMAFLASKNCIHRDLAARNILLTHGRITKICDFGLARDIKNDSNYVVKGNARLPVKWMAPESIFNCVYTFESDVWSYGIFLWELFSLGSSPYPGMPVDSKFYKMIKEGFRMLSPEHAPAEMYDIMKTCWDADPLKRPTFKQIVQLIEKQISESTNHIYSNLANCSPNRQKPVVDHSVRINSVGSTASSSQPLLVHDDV
T3 sequence (P35968 20-1356): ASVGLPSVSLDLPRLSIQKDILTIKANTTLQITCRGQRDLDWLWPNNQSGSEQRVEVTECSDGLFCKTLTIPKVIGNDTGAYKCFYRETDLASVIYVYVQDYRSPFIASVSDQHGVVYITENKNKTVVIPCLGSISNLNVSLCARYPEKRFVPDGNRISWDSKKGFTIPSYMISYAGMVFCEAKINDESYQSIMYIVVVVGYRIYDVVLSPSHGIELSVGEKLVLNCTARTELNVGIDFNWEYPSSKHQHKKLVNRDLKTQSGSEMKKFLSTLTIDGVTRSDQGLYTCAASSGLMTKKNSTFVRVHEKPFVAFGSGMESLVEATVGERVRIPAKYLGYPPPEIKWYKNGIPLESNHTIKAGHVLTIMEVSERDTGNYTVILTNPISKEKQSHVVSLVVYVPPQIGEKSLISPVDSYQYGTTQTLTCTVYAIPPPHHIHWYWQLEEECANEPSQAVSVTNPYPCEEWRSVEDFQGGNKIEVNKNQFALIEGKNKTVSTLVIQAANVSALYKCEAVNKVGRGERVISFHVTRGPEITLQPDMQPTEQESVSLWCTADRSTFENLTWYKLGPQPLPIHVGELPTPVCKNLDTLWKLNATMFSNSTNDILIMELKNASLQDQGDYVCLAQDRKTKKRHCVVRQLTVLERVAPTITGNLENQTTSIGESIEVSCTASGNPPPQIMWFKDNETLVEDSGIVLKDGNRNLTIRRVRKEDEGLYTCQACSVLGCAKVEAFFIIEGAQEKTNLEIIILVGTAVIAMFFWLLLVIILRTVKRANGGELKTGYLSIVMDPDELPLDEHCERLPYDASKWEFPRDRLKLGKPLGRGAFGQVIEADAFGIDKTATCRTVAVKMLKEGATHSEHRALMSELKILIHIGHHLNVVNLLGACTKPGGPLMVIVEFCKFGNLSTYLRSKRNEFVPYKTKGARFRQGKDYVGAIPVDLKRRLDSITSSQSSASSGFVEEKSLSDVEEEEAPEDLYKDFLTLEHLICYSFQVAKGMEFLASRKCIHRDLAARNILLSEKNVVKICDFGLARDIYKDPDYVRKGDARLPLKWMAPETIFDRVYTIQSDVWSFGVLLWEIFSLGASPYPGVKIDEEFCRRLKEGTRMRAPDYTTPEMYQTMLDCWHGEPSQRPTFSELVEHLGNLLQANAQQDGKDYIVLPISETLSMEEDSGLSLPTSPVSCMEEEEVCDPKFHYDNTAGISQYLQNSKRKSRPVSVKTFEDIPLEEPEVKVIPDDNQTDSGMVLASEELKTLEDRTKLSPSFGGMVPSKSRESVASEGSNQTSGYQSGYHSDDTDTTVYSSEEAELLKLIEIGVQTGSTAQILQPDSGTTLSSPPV

Turning to `C[C@H](Nc1cncc(-c2cccc(S(N)(=O)=O)c2)n1)c1cccc(NC(=O)c2cccc(C(F)(F)F)c2)c1` [Compound 178], the IC50 in experiment [1] is below 100 nM; in experiment [2], below 1000 nM; in experiment [3] it was below 100 nM; in experiment [4], below 200 nM; in experiment [5], below 10000 nM.
Regarding `C[C@H](Nc1cncc(-c2ccc(S(C)(=O)=O)cc2)n1)c1cccc(NC(=O)c2cccc(C(F)(F)F)c2)c1` [Compound 182], the IC50 in experiment [1] is below 100 nM; in experiment [2] it was below 1000 nM; in experiment [3] it was below 100 nM; in experiment [4], below 200 nM; in experiment [5], above 10000 nM.
On to `C[C@H](Nc1cncc(-c2ccc(CN3CCN(C)CC3)cc2)n1)c1cccc(NC(=O)c2cccc(C(F)(F)F)c2)c1` [Compound 191], for which the half-inhibitory concentration (IC50) in experiment [1] is below 100 nM; in experiment [2], below 100 nM; in experiment [3], below 100 nM; in experiment [4], below 200 nM; in experiment [5] it was below 10000 nM.
Turning to `C[C@H](Nc1cncc(-c2ccc(N3CCOCC3)nc2)n1)c1cccc(NC(=O)c2cccc(C(F)(F)F)c2)c1` [Compound 187], the IC50 in experiment [1] is below 100 nM; in experiment [2], below 1000 nM; in experiment [3], below 100 nM; in experiment [4] it was below 200 nM; in experiment [5], above 10000 nM.
As for `COc1cccc(C(=O)Nc2cccc([C@H](C)Nc3cncc(-c4cccc(N5CCOCC5)c4)n3)c2)c1` [Compound 190], the IC50 was below 100 nM in experiment [1]; below 100 nM in experiment [2]; below 100 nM in experiment [3]; below 200 nM in experiment [4]; above 10000 nM in experiment [5].
Take `C[C@H](Nc1cncc(-c2ccc(CO)cc2)n1)c1cccc(NC(=O)c2cccc(C(F)(F)F)c2)c1` [Compound 174, (S)—N-(3-(1-(6-(4-(hydroxymethyl)phenyl)pyrazin-2-ylamino)ethyl)phenyl)-3-(trifluoromethyl)benzamide]: the IC50 was below 100 nM in experiment [1]; below 100 nM in experiment [2]; below 100 nM in experiment [3]; below 200 nM in experiment [4]; above 10000 nM in experiment [5].
In the case of `C[C@H](Nc1cncc(-c2ccc(S(N)(=O)=O)cc2)n1)c1cccc(NC(=O)c2cccc(C(F)(F)F)c2)c1` [Compound 173], the IC50 was below 100 nM in experiment [1], below 1000 nM in experiment [4] and above 10000 nM in experiment [5].
On to `C[C@H](Nc1cncc(-c2cccc(N3CCOCC3)c2)n1)c1cccc(NC(=O)c2ccc(F)c(Cl)c2)c1` [Compound 189], for which the IC50 in experiment [1] was below 100 nM; in experiment [2], below 1000 nM; in experiment [3], below 100 nM; in experiment [4], below 200 nM; in experiment [5], above 10000 nM.
As to `C[C@H](Nc1cncc(-c2cccnc2)n1)c1cccc(NC(=O)c2cccnc2)c1` [Compound 11], the IC50 in experiment [1], in experiment [2] and in experiment [6] was below 1000 nM in each case.
Turning to `C[C@H](Nc1cncc(-c2cccc(S(C)(=O)=O)c2)n1)c1cccc(NC(=O)c2cccc(C(F)(F)F)c2)c1` [Compound 181], the IC50 in experiment [1] was below 100 nM; in experiment [2], below 100 nM; in experiment [3] it was below 100 nM; in experiment [4] it was below 200 nM; in experiment [5], below 10000 nM.
Consider `C[C@H](Nc1cncc(-c2cccc(NS(C)(=O)=O)c2)n1)c1cccc(NC(=O)c2cccnc2)c1` [Compound 16], for which the values for the half-inhibitory concentration (IC50) in experiment [1], in experiment [2] and in experiment [6] were below 100 nM, below 100 nM and below 1000 nM, respectively.
`Cc1ccc(NC(=O)c2cccc(C(F)(F)F)c2)cc1[C@H](C)Nc1cncc(Cl)n1` [Compound 169]: the IC50 is below 1000 nM in experiment [1]; below 1000 nM in experiment [2]; below 100 nM in experiment [3]; below 200 nM in experiment [4]; below 10000 nM in experiment [5].
`C[C@H](Nc1cncc(-c2cccc(CO)c2)n1)c1cccc(NC(=O)c2cccc(C(F)(F)F)c2)c1` [Compound 185]: the concentration for half-maximal inhibition (IC50) in experiment [1] is below 100 nM; in experiment [2], below 1000 nM; in experiment [3], below 100 nM; in experiment [4] it was below 200 nM; in experiment [5], below 10000 nM.
With `Cc1cncn1-c1cncc(N[C@@H](C)c2cccc(NC(=O)c3cccc(C(F)(F)F)c3)c2)n1` [Compound 188], the concentration for half-maximal inhibition (IC50) in experiment [1] is below 100 nM; in experiment [2], below 100 nM; in experiment [3], below 100 nM; in experiment [4], below 200 nM; in experiment [5], above 10000 nM.
Regarding `COc1cc(-c2cncc(N[C@@H](C)c3cccc(NC(=O)c4cccnc4)c3)n2)ccc1O` [Compound 3], the IC50 in experiment [2] and in experiment [6] was below 100 nM each time.
Take `Cc1cn(-c2cncc(N[C@@H](C)c3cccc(NC(=O)c4cccc(C(F)(F)F)c4)c3)n2)cn1` [Compound 179]: the IC50 in experiment [1] is below 100 nM; in experiment [2], below 100 nM; in experiment [3], below 100 nM; in experiment [4], below 200 nM; in experiment [5], below 10000 nM.
With `C[C@H](Nc1cncc(Cl)n1)c1cccc(NC(=O)c2cccc(CN3CCN(C)CC3)c2)c1` [Compound 127], the IC50 in experiment [4] was below 1000 nM; in experiment [5] it was above 10000 nM.
Consider `Cc1ccc(F)c(C(=O)Nc2cccc([C@H](C)Nc3cncc(-c4cccc(N5CCOCC5)c4)n3)c2)c1` [Compound 192], for which the half-inhibitory concentration (IC50) in experiment [1] was below 100 nM; in experiment [2] it was below 100 nM; in experiment [3], below 100 nM; in experiment [4], below 200 nM; in experiment [5], above 10000 nM.
Take `COc1ccc(-c2cncc(N[C@@H](C)c3cccc(NC(=O)c4cccnc4)c3)n2)c(OC)n1` [Compound 20]: the IC50 in experiment [1] is below 100 nM; in experiment [2], below 100 nM; in experiment [6] it was below 1000 nM.
Consider `COc1cc(-c2cncc(N[C@@H](C)c3cccc(NC(=O)c4cncc(C)c4)c3)n2)ccc1OP(=O)(O)O` [Compound 35], for which the IC50 in experiment [1] was below 100 nM; in experiment [2], below 1000 nM; in experiment [6], below 1000 nM.
In the case of `C[C@H](Nc1cncc(-c2cn[nH]c2)n1)c1cccc(NC(=O)c2cccnc2)c1` [Compound 19], the IC50 in experiment [1] was below 100 nM; in experiment [2] it was below 100 nM; in experiment [6] it was below 1000 nM.
On to `CC(Nc1cncc(-c2ccc(N)cc2)n1)c1cccc(NC(=O)c2cccnc2)c1` (racemic) [Compound 22], for which the IC50 in experiment [1] is below 100 nM; in experiment [2], below 100 nM; in experiment [6], below 1000 nM.
Take `C[C@H](Nc1cncc(-c2ccc(NS(C)(=O)=O)cc2)n1)c1cccc(NC(=O)c2cccc(C(F)(F)F)c2)c1` [Compound 183]: the IC50 in experiment [1] was below 100 nM; in experiment [2], below 1000 nM; in experiment [3], below 100 nM; in experiment [4], below 200 nM; in experiment [5], below 10000 nM.
Consider `COc1cccc(-c2cncc(N[C@@H](C)c3cccc(NC(=O)c4cccnc4)c3)n2)c1` [Compound 13], for which the IC50 in experiment [1], in experiment [2] and in experiment [6] was below 100 nM throughout.
With `COc1cccc(-c2cncc(N[C@@H](C)c3cccc(NC(=O)c4ccc(C)nc4)c3)n2)c1` [Compound 36], the IC50 in experiment [1] is below 100 nM; in experiment [2], below 100 nM; in experiment [6], below 1000 nM.
